Consider 3 compounds from patent US6506567B2, “Water-soluble flourescent intercalator compound” (Fuji Photo Film Co., Ltd., priority 2000, dated 2003).

Format in all cases: binding
Assay [1] has as its system calf thymus DNA (hybrid DNA). As to the kind of experiment: Rate of dissociation of intercalator from hybrid DNA (SDS addition, fluorescence over time). The following applies: SDS final concentration 0.5 vol. %; same buffer solution as the fluorescence test. The procedure:
(§1) To the buffer solution containing hybrid DNA and intercalator which was employed above was added an aqueous sodium dodecylsulfate (SDS) solution to give a final SDS concentration of 0.5 vol. %. After the SDS solution was added, variation of the fluorescence strength at a lapse of time was measured. From the variation data, the dissociation rate was determined. The dissociation rate was 0.02/sec.

Assay [2] deals with calf thymus DNA (hybrid DNA). The assay can be described thus: Detection of hybrid DNA fragment using fluorescent intercalator (fluorometry). As to conditions: intercalator 1 M; calf thymus DNA 100 μM; 5 mM phosphate buffer pH 7.0, sodium sulfate 5 mM; excitation 434 nm. The procedure: (§2) The fluorescent intercalator (1 M) prepared above was placed in an aqueous 5 mM phosphate buffer solution (pH 7.0) containing a calf thymus DNA (hybrid DNA, 100 μM) and sodium sulfate (5 mM). In the buffer solution, the fluorescent intercalator was intercalated into the hybrid DNA. The fluorescence emitted by the buffer solution containing the hybrid DNA having the intercalated fluorescent intercalator was fluorometrically measured in the wavelength region of 440 to 600 nm by exciting with a light of 434 nm.
(§3) The fluorescence emitted by the same buffer solution containing no calf thymus DNA (i.e., hybrid DNA) was also measured in the same manner.

The test system of assay [3] is single stranded DNA (calf thymus DNA heated to 90° C. for 20 min.). As to the kind of experiment: Fluorometry with single stranded DNA in place of hybrid DNA. As to conditions: procedures of Example 1, excitation 434 nm. The procedure: as §2, §3
(§4) The same calf thymus DNA (hybrid DNA) as employed in Example 1 was heated to 90° C. for 20 min., to give a single stranded DNA.
(§5) The procedures of Example 1 were repeated using thus prepared single stranded DNA in place of the hybrid DNA.

Assay [4] shares this test system. As to the kind of experiment: Rate of dissociation of intercalator from single stranded DNA. As to conditions: determined in the same manner as in Example 1 (SDS 0.5 vol. %). The procedure: as §1, §4, §5

For the compound `COc1ccc2nc3cc(Cl)ccc3c(N)c2c1` [9-amino-6-chloro-2-methoxyacridine, reference compound], the “dissociation rate from hybrid DNA” value in assay [1] is 19.0 s⁻¹. Besides, the “fluorescence strength at 475 nm, buffer solution containing hybrid DNA relative to buffer solution containing no hybrid DNA” value in assay [2] is listed as “approx. 6 times”.
For “N,N-bis{3-[4-(3-(6-chloro-9-imino-2-methoxyacridinyl)propyl)-1,4-diazacyclohexyl]propyl}naphthalenediimide”, the “fluorescence strength at 475 nm, buffer solution containing hybrid DNA relative to buffer solution containing no hybrid DNA” value in assay [2] is on record as “not high”.
“N-{3-[4-(3-( 6-chloro-9-imino-2-methoxyacridinyl)propyl)-1,4-diazacyclohexyl]propyl}-N′-{3-[4-(3-aminopropyl)-1,4-diazacyclohexyl]propyl}naphthalenediimide”: in assay [1], the “dissociation rate from hybrid DNA” value came out at 0.02 s⁻¹. The “fluorescence strength at 475 nm, buffer solution containing single stranded DNA relative to buffer solution containing no single stranded DNA” value in assay [3] is given as “approx. 16 times”. In addition, in assay [4], the “dissociation rate from single stranded DNA” value stood at 1.2 s⁻¹. Also, the “fluorescence strength at 475 nm, buffer solution containing hybrid DNA relative to buffer solution containing no hybrid DNA” value in assay [2] is listed as “approx. 30 times”.
